Legend:
mAb CHO-131 = assay: Glycan microarray analysis (Consortium for Functional Glycomics, printed array version 4.0), glycan binding of mAb CHO-131; conditions: for RFU: mAb CHO-131 at 50 μg/ml, average RFU of 6 replicates after removal of highest and lowest values; for binding to CHO-131 antibody, in words: glycan microarray, as described
Experimental: (§1) mAb CHO-131 was purchased from R&D Systems (MAB996). mAb CSLEX was purchased form BD Biosciences (551344). Glycan microarray analysis was carried out by the Consortium for Functional Glycomics. Glycan microarrays were printed as described (Blixt 2004). Version 4.0 of the printed glycan array was used for analysis. Binding analysis was performed at 50 μg/ml of antibody. Data are reported as average RFU of 6 replicates after removal of highest and lowest values.

mAb CSLEX = assay: Glycan microarray analysis (Consortium for Functional Glycomics, printed array version 4.0), glycan binding of mAb CSLEX; conditions: mAb CSLEX at 50 μg/ml; average RFU of 6 replicates after removal of highest and lowest values
Experimental: as §1

Structure (SMILES)	RFU (mAb CHO-131)	RFU (mAb CSLEX)	binding to CHO-131 antibody, in words (mAb CHO-131)
CC(=O)NC1C(OCCCN)OC(CO)C(OC2OC(COS(=O)(=O)O)C(O)C(OC3(C(=O)O)CC(O)C(NC(C)=O)C(C(O)C(O)CO)O3)C2O)C1O (stereo not drawn) [compound 43]	22706 RFU	12653 RFU	
CC(=O)NC1C(O)CC(OC2C(O)C(COS(=O)(=O)O)OC(OC3C(CO)OC(OCCCN)C(NC(C)=O)C3OC3OC(C)C(O)C(O)C3O)C2O)(C(=O)O)OC1C(O)C(O)CO (stereo not drawn) [compound 220]	36255 RFU	22795 RFU	
CC(=O)NC1C(O)CC(OC2C(O)C(CO)OC(OC3C(CO)OC(OC4C(O)C(CO)OC(OC5C(CO)OC(OC6C(O)C(CO)OC(OC7C(CO)OC(OCCN)C(NC(C)=O)C7OC7OC(C)C(O)C(O)C7O)C6O)C(NC(C)=O)C5OC5OC(C)C(O)C(O)C5O)C4O)C(NC(C)=O)C3OC3OC(C)C(O)C(O)C3O)C2O)(C(=O)O)OC1C(O)C(O)CO (stereo not drawn) [compound 242]	29505 RFU	31104 RFU	
CC(=O)NC1C(O)CC(OC2C(O)C(CO)OC(OC3C(CO)OC(OCCN)C(NC(C)=O)C3OC3OC(C)C(O)C(O)C3O)C2O)(C(=O)O)OC1C(O)C(O)CO (stereo not drawn) [compound 243]	20068 RFU	13988 RFU	somewhat weaker binding
CC(=O)NC1C(O)CC(OC2C(O)C(CO)OC(OC3C(CO)OC(OCCCN)C(NC(C)=O)C3OC3OC(C)C(O)C(O)C3O)C2O)(C(=O)O)OC1C(O)C(O)CO (stereo not drawn) [compound 244]	34336 RFU	19491 RFU	ligand for the antibody
CC(=O)NC1C(O)CC(OC2C(O)C(CO)OC(OC3C(CO)OC(OC4C(O)C(CO)OC(OCCCN)C4O)C(NC(C)=O)C3OC3OC(C)C(O)C(O)C3O)C2O)(C(=O)O)OC1C(O)C(O)CO (stereo not drawn) [compound 245]	33335 RFU	22997 RFU	third best ligand structure
CC(=O)NC1C(OCCCN)OC(CO)C(OC2OC(CO)C(O)C(OC3OC(CO)C(OC4OC(CO)C(O)C(OC5(C(=O)O)CC(O)C(NC(C)=O)C(C(O)C(O)CO)O5)C4O)C(OC4OC(C)C(O)C(O)C4O)C3NC(C)=O)C2O)C1O (stereo not drawn) [compound 246]	24587 RFU	27193 RFU	
CC(=O)NC1C(OCCN)OC(CO)C(OC2OC(CO)C(O)C(OC3(C(=O)O)CC(O)C(NC(=O)CO)C(C(O)C(O)CO)O3)C2O)C1OC1OC(C)C(O)C(O)C1O (stereo not drawn) [compound 271]	9521 RFU	4766 RFU	
CC(=O)N[C@H]1[C@H](OCCN)O[C@H](COS(=O)(=O)O)[C@@H](O[C@@H]2O[C@H](COS(=O)(=O)O)[C@H](O)[C@H](O)[C@H]2O)[C@@H]1O [compound 287]	1306 RFU	29 RFU	
CC(=O)NC1C(OCCCN)OC(CO)C(O)C1OC1OC(C(=O)O)C(O)C(O)C1O (stereo not drawn) [compound 299]	5434 RFU	39 RFU	
CC(=O)NC1C(O)CC(OC2C(O)C(CO)OC(OC3C(NC(C)=O)C(OC4C(O)C(CO)OC(OC5C(NC(C)=O)C(OCCN)OC(CO)C5OC5OC(C)C(O)C(O)C5O)C4O)OC(CO)C3OC3OC(C)C(O)C(O)C3O)C2O)(C(=O)O)OC1C(O)C(O)CO (stereo not drawn) [compound 326]		42 RFU	
CC(=O)N[C@H]1[C@H](O[C@H]2[C@@H](O)[C@@H](CO)O[C@@H](O[C@H]3[C@H](O[C@@H]4O[C@@H](C)[C@@H](O)[C@@H](O)[C@@H]4O)[C@@H](NC(C)=O)[C@H](O[C@H]4[C@@H](O)[C@@H](CO)O[C@@H](O[C@H]5[C@H](O[C@@H]6O[C@@H](C)[C@@H](O)[C@@H](O)[C@@H]6O)[C@@H](NC(C)=O)[C@H](OCCN)O[C@@H]5CO)[C@@H]4O)O[C@@H]3CO)[C@@H]2O)O[C@H](CO)[C@@H](O[C@@H]2O[C@H](CO)[C@H](O[C@H]3O[C@H](CO)[C@@H](O)[C@H](O)[C@H]3NC(C)=O)[C@H](O)[C@H]2O)[C@@H]1O [compound 337]	706 RFU	41 RFU	some binding

From patent US20120202701A1, “AN ANTIBODY-GLYCAN COMPLEX TARGETING THE DISIALYL CORE II AND SIALYL LEWIS X STRUCTURES, AND USES THEREOF INVOLVING ANALYSIS OF STEM CELLS OR CANCER CELLS” (GLYKOS FINLAND OY, priority 2009, published 2012)
